Read-outs that look alike come from different tables or passages of the source.
How the values were obtained:
[1] = tested on: 1205 Lu melanoma cells; test: Western blot analysis; assay type: cell-based, human; conditions: 2.5-50 μmol/L for 48 h
Description: (§1) Cell lysates are harvested and processed as described in Sharma A et al., Cancer Res 2006, 66:8200-9. […] Protein lysates are collected for Western blotting. Blots are probed with total and phospho-Akt (Ser473), phospho-PRAS40 (Thr246), phospho-Erk1/2 (Thr202/Tyr204), total and Phospho-Mek1/2 (Ser217) and cleaved PARP from Cell Signaling Technology (Danvers, Mass.). Total PRAS40 from Invitrogen (Carlsbad, Calif.). Total Erk, cyclin D1, p27, Alpha-enolase and secondary antibodies conjugated with horseradish peroxidase from Santa Cruz Biotechnology (Santa Cruz Biotechnology, Santa Cruz, Calif.). COX-1 and COX-2 antibodies were obtained from Cayman Chemical Company, Ann Arbor, Mich. Immunoblots are developed using the enhanced chemiluminescence detection system (Amersham Pharmacia Biotech, Piscataway, N.J.).

[2] = tested on: UACC 903 melanoma cells; test: Western blot analysis; assay type: cell-based, human; conditions: UACC 903, 2.5-50 μmol/L for 48 h
Description: as §1

[3] = for Mortality at Day 7: 3 mice/group
Description: Number of mice surviving and changes in body weight after 7 days of drug treatment is scored (Table I).

[4] = tested on: MDA-MB-231 (Breast); test: IC50 for killing cancer cells; assay type: cell-based; conditions: Homo sapiens
Description: (§2) Therapeutic universality of selenocoxib-1-GSH for killing cancer cells is examined by treating pancreatic (MiaPaca-2), breast (MDA-MB-231), prostate (PC-3) or sarcoma (HT-1080) and colon (Caco2) cell. lines with the drug and establishing the IC50 for each cell line, Table III. Selenocoxib-1-GSH kills the various cancer cell lines at 2-3-fold lower concentrations than normal fibroblast cells.

[5] = tested on: Caco-2 (Colon); test: IC50 for killing cancer cells; assay type: cell-based; conditions: Homo sapiens
Description: as §2

[6] = tested on: MiaPaca-2 (Pancreas); test: IC50 for killing cancer cells; assay type: cell-based; conditions: Homo sapiens, MIA PaCa-2
Description: as §2

[7] = tested on: HT-1080 (Fibro sarcoma); test: IC50 for killing cancer cells; assay type: cell-based; conditions: Homo sapiens
Description: as §2

[8] = tested on: PC-3 (Prostate); test: IC50 for killing cancer cells; assay type: cell-based; conditions: Homo sapiens
Description: as §2

[9] = tested on: FF2441 human fibroblast cells; test: Cell viability, MTS assay; assay type: cell-based
Method: (§3) Cell viability, proliferation, apoptosis and cell cycle analysis: Viability and IC50 (μmol/L) of normal human melanocytes, fibroblast and melanoma cells following treatment with inhibitors are measured using the MTS assay (Promega, Madison, Wis.) described in Sharma A, et al., Clin Cancer Res 2009; 15:1674-85; and Madhunapantula S V, et al., Mol Cancer Ther 2008; 7:1297-308. […] IC50 values for each inhibitor in μmol/L for respective cell lines are measured from three independent experiments using GraphPad Prism version 4.01 (GraphPad Software, La Jolla, Calif.).
(§4) The number of viable cells is measured using MTS and percentage decrease in viability calculated. IC50 values for each inhibitor in μmol/L for respective cell lines are measured from three independent experiments using GraphPad Prism version 4.01 (GraphPad Software, La Jolla, Calif.).

[10] = tested on: WM115 vertical growth phase melanoma cells; test: Cell viability, MTS assay; assay type: cell-based; conditions: Homo sapiens, WM-115
Method: as §3, §4

[11] = tested on: WM35 radial growth phase melanoma cells; test: Cell viability, MTS assay; assay type: cell-based; conditions: Homo sapiens
Method: as §3, §4

[12] = tested on: FOM103 normal human melanocytes; test: Cell viability, MTS assay; assay type: cell-based; conditions: Melanocyte
Method: as §3, §4

[13] = tested on: UACC 903 metastatic melanoma cells; test: cells; conditions: Homo sapiens
Method: as §3, §4

[14] = tested on: 1205 Lu metastatic melanoma cells; test: cells; conditions: Homo sapiens
Method: as §3, §4

[15] = 0.032 μmoles (2.5 PPM) intraperitoneally daily for seven days

N#CC(=C(/N)Sc1ccccc1N)/C(C#N)=C(\N)Sc1ccccc1N [U0126, reference compound]
COX-1 expression [1]: without affecting COX-1
COX-2 expression [1]: reduces the expression of COX-2
Levels of pErk1/2 [1]: similarly decrease
COX-1 expression [2]: without affecting COX-1
COX-2 expression [2]: reduces the expression of COX-2
Levels of pErk1/2 [2]: similarly decrease

Selenocoxib-1
% of weight loss [3, 15]: 14.07%
Mortality at Day 7 [3, 15]: 0/3
% of weight loss ([3]; 0.032 μmoles (2.5 PPM) intraperitoneally daily for seven days, listed as selenocoxib-1): 14%
Mortality at Day 7 ([3]; 0.064 μmoles (5.0 PPM) intraperitoneally daily for seven days): 3/3
animal mortality ([3]; concentrations of 0.032-0.064, after seven days of treatment): 100%

Cc1ccc(-c2cc(C(F)(F)F)nn2-c2ccc(S(N)(=O)=O)cc2)cc1 [Celecoxib, reference compound]
IC50 [4]: > 100 µM
IC50 [5]: > 100 µM
IC50 [6]: > 100 µM
IC50 [7]: > 100 µM
IC50 [8]: > 100 µM
IC50 ([9]; FF2441, 24 h): > 100 µM
IC50 ([9]; FF2441, 48 h): > 100 µM
IC50 ([9]; FF2441, 72 h): 65.3 ± 3.3 µM
IC50 ([10]; WM115, 24 h): 54.4 ± 3.6 µM
IC50 ([10]; WM115, 48 h): 45.3 ± 2.7 µM
IC50 ([10]; WM115, 72 h): 41.8 ± 2.9 µM
IC50 ([11]; WM35, 24 h): 51.3 ± 2.3 µM
IC50 ([11]; WM35, 48 h): 42.3 ± 1.8 µM
IC50 ([11]; WM35, 72 h): 37.9 ± 3.3 µM
IC50 ([12]; FOM103, 24 h): > 100 µM
IC50 ([12]; FOM103, 48 h): > 100 µM
IC50 ([12]; FOM103, 72 h): 68 ± 1.2 µM
IC50 ([13]; UACC-903, 24 h): > 100 µM
IC50 ([13]; UACC-903, 48 h): > 100 µM
IC50 ([13]; UACC-903, 72 h): 76.6 ± 4.4 µM
IC50 ([14]; 24 h): > 100 µM
IC50 ([14]; 48 h): 83.6 ± 3.3 µM
IC50 ([14]; 72 h): 66.1 ± 3.2 µM

— US9918966B2, “Anti-cancer compositions and methods” (The Penn State Research Foundation, priority 2013, dated 2018)
